Structures are written as SMILES.

In the assay the test system is Synovial cells from OA patients. To be noted: retinoic acid 0.05%, 6 hours after addition, colloidal iron staining.

Experimental: Synovial cells from OA patients were cultured, and the retinoic acid nanocapsule containing calcium carbonate as an ingredient of the capsule produced in Example 1, and retinoic acid (atRA) were added thereto. Six hours after the addition, colloidal iron staining was performed to confirm the status of hyaluronic acid production. The evaluation groups were: DMSO as control, atRA, and the retinoic acid nanocapsule. The concentration of added retinoic acid was set 0.05% in both groups of atRA and retinoic acid nanocapsule.

`CC1=C(/C=C/C(C)=C/C=C/C(C)=C/C(=O)O)C(C)(C)CCC1` [atRA, All-trans retinoic acid]: the Hyaluronic acid production entry was “confirmed”.
